Measured values from publication PMC10165889 (European journal of medicinal chemistry, 2023).
≈ marks a conversion by molar mass, not a printed value.

Legend:
in vitro [1] = conditions: human; for Papp B→A: Caco-2; for Papp: Caco-2, Caco2 A/B (Papp), A to B
in vitro [2] = conditions: human, plasma
in vitro [3] = conditions: human, microsomes
NALM16 leukaemia cells = experiment: Cancer cell viability, CellTiter-Glo, NALM16; assay type: cell-based; conditions: NALM16, 72 h, read-out: NALM16, IC50
physchem = conditions: phosphate buffer, pH 7.4
[4] = incubation 0.5h, UV; table
MYC = MYC protein abundance by immunoblotting in MV4-11; assay type: cell-based; conditions: MV4–11, 6 hours incubation, 100 nM
[5] = tested on: HDMB03 medulloblastoma cells; experiment: cells; assay type: cell-based; conditions: Homo sapiens, HD-MB03, 72 h, read-out: HDMB03, IC50
BET isoforms = experiment: BROMOscan profiling; conditions: all BET isoforms (Figure S2)
BRD2 (BD1) = BRD2 (BD1) (Homo sapiens, UniProt P25440); experiment: TR-FRET binding assay, BRD2
BRD2 (BD1), sequence (P25440 74-180 limits assumed): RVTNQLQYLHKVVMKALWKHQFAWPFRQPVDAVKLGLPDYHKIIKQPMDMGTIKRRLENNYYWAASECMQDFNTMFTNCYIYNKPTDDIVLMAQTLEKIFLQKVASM

BRD4 (BD1) = BRD4 (BD1) (Homo sapiens, UniProt O60885); experiment: TR-FRET binding assay, BRD4
[6] = In vivo pharmacokinetic study in female CD1 mice; conditions: P.O. 3mg/kg and 10mg/kg
[7] = incubation up to 48h
[8] = assay type: in vitro ADME; conditions: RED assay
BRD2(BD2) = BRD2(BD2) (Homo sapiens, UniProt P25440); experiment: TR-FRET binding assay, BRD2
BRD2(BD2), sequence (P25440 344-453 limits assumed): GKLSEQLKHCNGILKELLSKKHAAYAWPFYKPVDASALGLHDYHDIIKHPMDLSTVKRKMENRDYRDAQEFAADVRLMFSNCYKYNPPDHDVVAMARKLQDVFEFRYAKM

[9] = tested on: MOLM-13 acute leukaemia cells; experiment: Cancer cell viability, CellTiter-Glo, MOLM-13; assay type: cell-based; conditions: Homo sapiens, MOLM-13, 72 h, read-out: MOLM-13, IC50
BRD4(BD2) = BRD4(BD2) (Homo sapiens, UniProt O60885); experiment: TR-FRET binding assay, BRD4
[10] = tested on: D283 medulloblastoma cells; experiment: Cancer cell viability, CellTiter-Glo, D283; assay type: cell-based; conditions: D283, 72 h, read-out: D283, IC50

SMILES: Cc1sc2c(c1C)C(c1ccc(Cl)cc1)=N[C@@H](CC(=O)NCc1ccccn1)c1nnc(C)n1-2 [1k]
- Papp B→A (in vitro [1]): 56.8 ×10⁻⁶ cm/s
- Papp (in vitro [1]): 9.84 ×10⁻⁶ cm/s
- half-life (in vitro [2]): > 100 h
- half-life (in vitro [3]): 0.1 h
- IC50 (NALM16 leukaemia cells): 14.8 nM
- solubility at 18 h (physchem): 72.5 µM (≈ 35.6 µg/mL)

SMILES: Cc1sc2c(c1C)C(c1ccc(Cl)cc1)=N[C@@H](CC(=O)NCc1cn(C)cn1)c1nnc(C)n1-2 [1f]
- half-life (in vitro [3]): 0.5 h
- PAMPA [4]: 0.0 10^−6cm/s
- solubility at 18 h (physchem): 65.7 µM (≈ 32.5 µg/mL)

SMILES: Cc1sc2c(c1C)C(c1ccc(Cl)cc1)=N[C@@H](CC(=O)NCc1ncco1)c1nnc(C)n1-2 [1i]
- IC50 (NALM16 leukaemia cells): 0.8 nM

SMILES: Cc1sc2c(c1C)C(c1ccc(Cl)cc1)=N[C@@H](CC(=O)Nc1nncs1)c1nnc(C)n1-2 [1q]
- MYC protein abundance (MYC): around 50%
- IC50 [5]: 6.6 nM
- affinity in BROMOscan profiling (BET isoforms): high affinity for all BET isoforms
- IC50 (NALM16 leukaemia cells): 3.6 nM
- IC50 (BRD2 (BD1)): 1.6 nM
- IC50 (BRD4 (BD1)): 6.5 nM
- oral bioavailability in words [6]: high bioavailability
- human plasma stability [7]: 100%

SMILES: Cc1sc2c(c1C)C(c1ccc(Cl)cc1)=N[C@@H](CC(=O)Nc1nccs1)c1nnc(C)n1-2 [1o]
- PB (human plasma binding) [8]: 98.2%
- Papp B→A (in vitro [1]): 4.11 ×10⁻⁶ cm/s
- Papp (in vitro [1]): 1.91 ×10⁻⁶ cm/s
- half-life (in vitro [3]): 1.1 h
- IC50 (NALM16 leukaemia cells): 6.4 nM
- IC50 (BRD2 (BD1)): 10.9 nM
- solubility at 18 h (physchem): 12.4 µM (≈ 5.99 µg/mL)
- IC50 (BRD2(BD2)): 2.6 nM

SMILES: Cc1sc2c(c1C)C(c1ccc(Cl)cc1)=N[C@@H](CC(=O)NCCO)c1nnc(C)n1-2 [1n]
- Papp B→A (in vitro [1]): 8.33 ×10⁻⁶ cm/s
- Papp (in vitro [1]): 0.7 ×10⁻⁶ cm/s
- half-life (in vitro [2]): > 100 h
- half-life (in vitro [3]): 3.2 h
- IC50 [9]: 8.8 nM
- solubility at 18 h (physchem): 76.1 µM (≈ 33.8 µg/mL)

SMILES: Cc1sc2c(c1C)C(c1ccc(Cl)cc1)=N[C@@H](CC(=O)NCc1c[nH]nn1)c1nnc(C)n1-2 [1d]
- half-life (in vitro [3]): 0.6 h
- IC50 (BRD2 (BD1)): 8.6 nM
- solubility at 18 h (physchem): 57.4 µM (≈ 27.6 µg/mL)
- IC50 (BRD4(BD2)): 1.3 nM

SMILES: Cc1sc2c(c1C)C(c1ccc(Cl)cc1)=N[C@@H](CC(=O)NCc1ccccc1)c1nnc(C)n1-2 [1g]
- half-life (in vitro [3]): 0.1 h
- solubility at 18 h (physchem): 34.1 µM (≈ 16.7 µg/mL)

SMILES: Cc1sc2c(c1C)C(c1ccc(Cl)cc1)=N[C@@H](CC(=O)NCC(=O)O)c1nnc(C)n1-2 [1l]
- IC50 [10]: > 8850 nM
- half-life (in vitro [3]): 11.3 h
- PAMPA [4]: 0.5 10^−6cm/s
- solubility at 18 h (physchem): 66.4 µM (≈ 30.4 µg/mL)

SMILES: Cc1sc2c(c1C)C(c1ccc(Cl)cc1)=N[C@@H](CC(=O)NCc1ccon1)c1nnc(C)n1-2 [1h]
- PB (human plasma binding) [8]: 93.5%

SMILES: Cc1sc2c(c1C)C(c1ccc(Cl)cc1)=N[C@@H](CC(=O)Nc1ccc(O)cc1)c1nnc(C)n1-2 [1c, birabresib, reference compound]
- PB (human plasma binding) [8]: 97.3%

SMILES: Cc1sc2c(c1C)C(c1ccc(Cl)cc1)=N[C@@H](CC(=O)NCc1cn(C)nn1)c1nnc(C)n1-2 [1e]
- half-life (in vitro [3]): 0.5 h
- PAMPA [4]: 14.0 10^−6cm/s
- solubility at 18 h (physchem): 80.8 µM (≈ 40 µg/mL)

SMILES: COC(=O)C(Cc1c[nH]cn1)NC(=O)C[C@@H]1N=C(c2ccc(Cl)cc2)c2c(sc(C)c2C)-n2c(C)nnc21 (some centres unmarked) [1j]
- PB (human plasma binding) [8]: 92.7%
- half-life (in vitro [2]): 24.7 h
- half-life (in vitro [3]): 4.7 h
- PAMPA [4]: 0.0 10^−6cm/s
- solubility at 18 h (physchem): 68.4 µM (≈ 37.8 µg/mL)
- IC50 (BRD4(BD2)): 6.5 nM
